From patent US4444776A, “Dipyrido (4,3-B) (3,4-F) indoles, process for obtaining them, therapeutical use and pharmaceutical compositions” (priority 1977, dated 1984)
Read-outs that look alike come from different tables or passages of the source.

Assays:
[1] = Test 4: toxicity on adult F1 mice, IP; conditions: in vivo
Source text: Test 4: Investigation of the toxicity
The toxic dose has been sought, on adult ([…]×DBA/2) Fl mice and on new-born mice, of the compounds of the invention by injection by the IP route. The results obtained are given hereinafter:
1- On adult F1 mice (C 57 BL 6×DBA/2)F1 (IP route)

Friend leukemia virus = assay: Test 14: viro-induced Friend leukemia, compound 21 (Tables Xa, Xb); assay type: in vivo, mouse; set-up: MST: unit not given beside the values; conditions: for life span: Tables Xa and II
Procedure: Test 14: viro-induced leukemia: Friend leukemia
A- As in test 2 hereinabove, the Friend leukemia virus inoculum was obtained from leukemia spleen and diluted to contain 100 SD50 /0.2 ml (SD50 =spleen enlarging dose 50 percent). The product to be tested was compound 21 (obtained according to example 7). It was given by I.P. route as a single injection 1 day after virus inoculation. […]
B. The proceeding of test 2 was repeated by using the compound 21 i.e. 1-[(γ-diethylaminopropyl)amino]-5-methyl-dipyrido[4,3-b][3,4-f]indole obtained according to example 7.
This test was carried out with a single dose of compound 21 (20 mg/kg) and with various virus doses.

[2] = test system: tumoral strain derived from the murine leukemia due to the C. FRIEND virus; assay: Test 7: antitumoral activity in vitro on Friend leukemia tumoral strain; assay type: cell-based; conditions: HUM = 1
Procedure: Test 7: Study of the antitumoral activity in vitro
This activity was measured on a tumoral strain derived from the murine leukemia due to the C. FRIEND virus.
The tumoral cells multiply in suspension in a "RPMI 1640" medium (Catalogue of GIBCO Bio-cult. Ltd. Washington Road, Sandyford Industrial Estate, PAISLEY PA 3 4EP, Renfrewshire, Scotland) supplemented with 20% of embryonary calf serum, penicillin and streptomycine. The duplication time of these cells is 11 hours. The growth fraction is equal to 1 or very close to 1 (all the cells are in the cycle). The cultures are sub-culturedat time t=0 at the concentration of 2.10^5 cells per ml in Falcon dishes containing 4 ml of medium. After twenty four hours, the product to be tested was added, i.e. at a moment when the cultures are in exponential phase of growth. Twenty four hours after the addition of the product, the cells are counted and the percentage of living cells determined by an exclusion test using "trypan" blue.

L 1210 leukemia = assay: Test 1: antitumoral properties on L 1210 leukemia (Table I); assay type: in vivo, mouse
Procedure: The lower animal antitumoral properties of the compounds according to the invention have been determined by their curative action on inoculated test L-1210 leukemia. [ZUBROD C. G., Proc. Nat. Acad. Sci. 1972, 69, 1042-1047 and SCHEPARTZ SA. SCREENING, 1971, CANCER Chemother. Rep. Part 3 vol.2 p.3].
This leukemia is maintained in ascitic form by passage (i.p. route) on CBDl (C57 B16×DBA/2)F1 mice. The preparation to be tested are injected by the intraperitoneal route at least one day after the inoculation of the cells (one injection only). The results are expressed in increased life span per cent (ILS %) according to KESSEL et al. Cancer Res. 1971, 31, 1883-1887) or in percentage of the number of cells killed by the product (the survival of the animals is proportional to the number of cells injected).
The following tests were made in groups of 10 mice, unless stipulated to the contrary.
Test 1: Study of the antitumoral properties of the compounds of the invention on L 1210 leukemia
The lower animal antitumoral properties of the compounds according to the invention were determined by their curative action on test inoculated L 1210 leukemia.
This leukemia was maintained on CBD 1 (C 57 B 16×DBA/2) F1 mice. The compounds to be tested were injected by the IP route one or more days after the inoculation of the cells (single injection). The results obtained, shown in table I hereinafter, are expressed in percentage of increase of life span (ILS %) and in percentage of the number of cells killed by the compound to be tested, the survival of the animals being proportional to the number of cells injected.
The percentage of the like span ILS % (Cancer. Res. 1971, 31, 1883-1887) is the following ratio: [formula] S^t =survival of the treated animals S^c =survival of the control animals

[3] = test system: Moloney virus / viro-induced Moloney sarcoma; assay: Test 3: development of the viro-induced Moloney sarcoma; assay type: in vivo, new-born mice; conditions: 1 μg/mouse (0.5 mg/kg)
Source text: The study of the development of the MOLONEY viro-induced sarcoma (Nat. Cancer. Inst. Monograph 22, 139-142, 1966) has also made it possible to determine that the compounds according to the invention are antiviral and antitumoral agents in lower animals.
Test 3: Study of the development of the viro-induced Moloney sarcoma
The injection of Moloney virus [C. Jasmin et al. J. Nat. Cander Inst. 1974 53 469-474] by the intramuscular i.m. route into new-born mice led after 10 days to the formation of a sarcoma. The appearance of the tumour was proportional to the dose of virus injected. The viral inoculum was constituted by a tumor homogenate diluted to 1/250, this corresponding to 10 TID 50, i.e. to the dose of virus inducing the appearance of a tumour in 50% of the animals infected. At this dose, 80 to 100% of the animals developed a tumour, and 100% of the survivors became leukemic. The experiment thus consisted in noting the number of mice presenting tumours, the regression, or not, of these tumours and finally in sacrificing the surviving animals after 2 months and in noting the presence or absence of splenomegaly (evidence of a leukemia). The virus was inoculated into new-born mice of 3 to 5 days by the IM route, and the mice received the following day (J+1) or five hours after injection (JO+5 hours) the product to be tested by the IP route.

[4] = experiment no 1, 10^3 cells, 50 mg/kg, J+2
[5] = experiment no 1, 10^4 cells, 50 mg/kg, J+2
[6] = experiment no 1, 10^5 cells, 50 mg/kg, J+2
[7] = experiment no 1, 10^6 cells, 50 mg/kg, J+2
[8] = experiment no 2, 10^4 cells, 50 mg/kg, J+1
[9] = experiment no 2, 10^5 cells, 50 mg/kg, J+1
[10] = experiment no 2, 10^6 cells, 50 mg/kg, J+1
[11] = Table Xa, 5 mg/kg, 1 day after virus
[12] = Table Xb, 20 mg/kg J+1, virus 1/500 (1000 SD50)
[13] = Table Xb, 20 mg/kg J+1, virus 1/1000
[14] = Table Xb, 20 mg/kg J+1, virus 1/2000 (250 SD50)
[15] = 10^3 cells, 0.01 mg/mouse (0.5 mg/kg), J+1
[16] = 10^3 cells, 0.1 mg/mouse (5 mg/kg), J+1
[17] = 10^4 cells, 0.1 mg/mouse (0.5 mg/kg) [sic], J+1
[18] = 10^4 cells, 0.1 mg/mouse (5 mg/kg), J+1

With `Cc1c2ccncc2c(C)c2c1[nH]c1ccncc12` [Example 1, 5,11-dimethyl dipyrido [4,3-b][3,4-f] indole] the mortality ([1]; mouse, ip, 20 mg/kg) was 16.7%, the mortality ([1]; mouse, ip, 40 mg/kg) was 12.5% and the mortality ([1]; mouse, ip, 80 mg/kg) was 83.3%. The life span (Friend leukemia virus) was “significant increase of the life span”, the “Activity (ratio of the LD50 of HUM to the LD50 of the product tested)” value [2] was 3 and the ILS % (L 1210 leukemia; [4]) was 3%. For the same compound, the “Number of cells found” value (L 1210 leukemia; [4]) was 800, the “Number of cells killed” value (L 1210 leukemia; [4]) was 20% and the Surviving mice (L 1210 leukemia; [4]) was 1/10. The ILS % (L 1210 leukemia; [5]) was 14,78%, the “Number of cells found” value (L 1210 leukemia; [5]) was 6,000 and the “Number of cells killed” value (L 1210 leukemia; [5]) was 40%. For the same compound, the ILS % (L 1210 leukemia; [6]) was 15,73%, the “Number of cells found” value (L 1210 leukemia; [6]) was 40,000 and the “Number of cells killed” value (L 1210 leukemia; [6]) was 60%. The Surviving mice (L 1210 leukemia; [6]) was 0, the ILS % (L 1210 leukemia; experiment no 1, 10^6 cells, 1 mg/mouse (50 mg/kg), IP, J+2) was 34,32% and the “Number of cells found” value (L 1210 leukemia; [7]) was 10^5. The “Number of cells killed” value (L 1210 leukemia; [7]) was 90%, the Surviving mice (L 1210 leukemia; [7]) was 0 and the ILS % (L 1210 leukemia; [8]) was 11,8%. For the same compound, the “Number of cells found” value (L 1210 leukemia; [8]) was 5000, the “Number of cells killed” value (L 1210 leukemia; [8]) was 50% and the ILS % (L 1210 leukemia; [9]) was 38,1%. The “Number of cells found” value (L 1210 leukemia; [9]) was 2000, the “Number of cells killed” value (L 1210 leukemia; [9]) was 98% and the ILS % (L 1210 leukemia; experiment no 2, 10^6 cells, 1 mg/mouse (50 mg/kg), J+1) was 47,3%. The “Number of cells found” value (L 1210 leukemia; [10]) was 8000, the “Number of cells killed” value (L 1210 leukemia; [10]) was 99% and the “ILS % (difference with the controls)” value (L 1210 leukemia; experiment no 3, 0,1 and 0,05 mg/mouse, 10^4 and 10^3 cells) was “no significant difference”. For the same compound, the “animals presenting a tumour” value ([3]; JO+5 hours) was 50%, the animals survived ([3]; JO+5 hours) was 75% and the mice with leukemia ([3]; JO+5 hours) was 65%. It also gave a tumours regressed ([3]; JO+5 hours) of 30%.

With `CCN(CC)CCCNc1nccc2c(C)c3[nH]c4ccncc4c3cc12` [Example 7, 1-(γ-diethylaminopropyl)amino-5-methyl-dipyrido-[4,3-b][3,4-f] indole] the mortality ([1]; 0.3 mg/mouse (15 mg/kg), IP, read-out: dead mice (converted)) was 0%, the mortality ([1]; 0.5 mg/mouse (25 mg/kg), IP, read-out: dead mice (converted)) was 0% and the mortality ([1]; 0.6 mg/mouse (30 mg/kg), IP, read-out: dead mice (converted)) was 50%. It also gave a mortality ([1]; 1 mg/mouse (50 mg/kg), IP, read-out: dead mice (converted)) of 33.3%, an LD50 ([1]; mouse, adult F1 mice, IP) of 30 mg/kg and an ILS % (Friend leukemia virus; [11]) of 39%. For the same compound, the MST (Friend leukemia virus; [11]) was 44.5, the Range of death (Friend leukemia virus; [11]) was 27 to 52 days and the ILS % (Friend leukemia virus; [12]) was 40%. For the same compound, the MST (Friend leukemia virus; [12]) was 40.7, the Range of death (Friend leukemia virus; [12]) was 31-51 and the “Survivors 4 months after inoculation” value (Friend leukemia virus; [12]) was 0. The ILS % (Friend leukemia virus; [13]) was 82.7%, the MST (Friend leukemia virus; [13]) was 44.4 and the Range of death (Friend leukemia virus; [13]) was 30-54. For the same compound, the “Survivors 4 months after inoculation” value (Friend leukemia virus; [13]) was 0, the ILS % (Friend leukemia virus; [14]) was 64% and the MST (Friend leukemia virus; [14]) was 55.4. The Range of death (Friend leukemia virus; [14]) was 50-82, the “Survivors 4 months after inoculation” value (Friend leukemia virus; [14]) was 2 and the life span (Friend leukemia virus) was “significant increase of the life span”. The “Activity (ratio of the LD50 of HUM to the LD50 of the product tested)” value [2] was 20, the ILS % (L 1210 leukemia; [15]) was 17.4% and the “Number of cells found” value (L 1210 leukemia; [15]) was 80. For the same compound, the “Number of cells killed” value (L 1210 leukemia; [15]) was 92%, the ILS % (L 1210 leukemia; [16]) was 23.2% and the “Number of cells found” value (L 1210 leukemia; [16]) was 40. The “Number of cells killed” value (L 1210 leukemia; [16]) was 96%, the Surviving mice (L 1210 leukemia; [16]) was 5/10 and the ILS % (L 1210 leukemia; 10^4 cells, 0.1 mg/mouse (0.5 mg/kg) [sic], IP, J+1) was 33.3%. For the same compound, the “Number of cells found” value (L 1210 leukemia; [17]) was 60, the “Number of cells killed” value (L 1210 leukemia; [17]) was 99.94% and the Surviving mice (L 1210 leukemia; [17]) was 1/10. The ILS % (L 1210 leukemia; 10^4 cells, 0.1 mg/mouse (5 mg/kg), IP, J+1) was 11.5%, the “Number of cells found” value (L 1210 leukemia; [18]) was 10^3 and the “Number of cells killed” value (L 1210 leukemia; [18]) was 90%. For the same compound, the animals survived ([3]; J+1) was 90%, the mice presenting tumours ([3]; J+1) was 70% and the mice with leukemia ([3]; J+1) was 0%. For the same compound, the tumours regressed ([3]; J+1) was 90%, the “animals presenting a tumour” value ([3]; JO+5 hours) was 5% and the animals survived ([3]; JO+5 hours) was 100%. For the same compound, the mice with leukemia ([3]; JO+5 hours) was 40% and the tumours regressed ([3]; JO+5 hours) was 100%.
